Where a SMILES comes first, the peptide text is derived from it.
Columns and labels:
sepsis (CLP) = assay: CLP with or without quercetin (HSP 70 inhibitor): survival, lung HSP/NOS, metabolism, TNF; assay type: in vivo, Sprague-Dawley rats; conditions: quercetin 400 mg/kg IP 6 hours pre-CLP
Description: Methods: Male Sprague-Dawley rats were divided into 5 groups. Two groups were treated with 400 mg/kg of quercetin (Q) IP (HSP 70 inhibitor) 6 hours pre-CLP. […] The final group (CONT, n=6) received no treatment. Five-day survival was monitored. In separate studies, lung was harvested 24-hours post-CLP and tissue metabolism analyzed by 31P- and 1H-MRS. A final study analyzed blood for TNF- at 6 hours post-CLP and lung tissue 6 hours post-CLP for HSP-70, iNOS, eNOS, and activated heat shock factor-1 (HSF-1).

[1] = system: polymicrobial sepsis and peritonitis (CLP); assay: CLP peritonitis/polymicrobial sepsis, GLN 30 minutes after induction, with or without quercetin; assay type: in vivo, rat; conditions: quercetin with GLN
Source text: Cecal ligation and puncture (CLP) in the rat was chosen as the appropriate model.

[2] = system: polymicrobial sepsis (2CLP); assay: Cecal-ligation and double-puncture (2CLP) sepsis: survival, cytokines, lung HSP 72; assay type: in vivo, Sprague-Dawley rats
Source text: Further, increased Interleukin-18 (IL-18) levels appear to play a critical role in cytokine-induced organ failure and can be predictive of mortality in sepsis patients.
Increased Interleukin-18 (IL-18) levels appear to play a critical role in cytokine-induced organ failure and can be predictive of mortality in sepsis patients.

[3] = system: polymicrobial sepsis (CLP); assay: Cecal ligation and puncture (CLP): lung and heart tissue metabolism by MRS, survival; assay type: in vivo, Sprague-Dawley rats; conditions: single large dose following onset of sepsis, CLP rat
Description: Survival was monitored for five days. In a separate group of animals (n=4/group), lung and heart tissue was harvested 24 hours post-CLP and tissue metabolism was analyzed by ^1H-MRS and ^31P-MRS.

[4] = system: myocardial ischemia/reperfusion injury; conditions: single dose 18 hours prior to myocardial injury, rat
congestive heart failure = conditions: 4 weeks of supplementation (Azuma et al 1983); cited from earlier work

SMILES: O=c1c(O)c(-c2ccc(O)c(O)c2)oc2cc(O)cc(O)c12 [Q, quercetin, reference compound]
- effect on TNF- or NOS expression (sepsis (CLP)): No Q effect
- HSF-1 activation and subsequent HSP70 expression (sepsis (CLP); with GLN): Inhibition
- effect on GLN's improvements in lung tissue metabolic dysfunction (sepsis (CLP); with GLN): blocked
- effect on GLN's survival benefit (sepsis (CLP); with GLN): abrogated
- effect on GLN attenuation of tissue metabolic dysfunction [1]: inhibited
- effect on GLN improvement of survival [1]: inhibited
- effect on GLN-enhanced HSP 70 expression and HSF-1 activation [1]: blocked

SMILES: C[C@H](N)C(=O)N[C@@H](CCC(N)=O)C(=O)O [alanyl-glutamine] (H-Ala-Gln-OH)
- lung HSP 72 expression versus control ([2]; following 2CLP): restore normal heat shock protein expression
- inflammatory cytokine release ([2]; single large dose following onset of sepsis, CLP rat): attenuate
- cellular metabolism in the lung [3]: improve
- myocardial function following ischemia and reperfusion injury [4]: improve myocardial function

SMILES: NCCS(=O)(=O)O [taurine]
- dyspnea, palpitation, crackles, edema, and New York Heart Association functional class (congestive heart failure): highly significant improvement
